Key:
[1] = test system: CTR astrocytes; assay: Potassium uptake (86Rb) by CTR astrocytes; type: cell-based, human; conditions: CTR glia/astrocytes, 86Rb uptake, 4 lines
Method: (§1) Potassium uptake. Astrocytes were plated onto poly-ornithine- and laminin-coated 24-well plates with 30,000 cells/well. For the potassium uptake assay, astrocytes were incubated with ^86Rb (1.0-3.3 μCi/well) for 15 minutes, and then they were washed three time with ice-cold artificial cerebrospinal fluid (aCSF, 500 μL/well). 0.5N NaOH (200 μL/well) was put into each well for cell lysis, which was put into 5 ml cocktail liquid (Ultima Gold, Fisher Scientific, 509050575) and measured by scintillation counter (Beckman Coulter, LS6500), and the results were normalized to both total protein (BCA Protein Assay Kit, Fisher Scientific, 23227) and cell number (Hemocytometer, Fisher Scientific, 02-671-54). The aCSF solution contained (in mM): 124 NaCl, 2.5 KCl, 1.75 NaH2PO4, 2 MgCl2, 2 CaCl2, 0.04 vitamin C, 10 glucose and 26 NaHCO3, pH 7.4.
To address this hypothesis, qPCR was used to confirm whether these K+ channel-associated genes were dysregulated in SCZ glia. […] Next, functional K^+ uptake was assessed directly, in cultured SCZ- and CTR-derived astrocytes. To obtain mature SCZ and CTR astrocyte cultures, CD44− sorted glial progenitors were cultured in base media supplemented with 10% fetal bovine serum (FBS) and 20 ng/ml BMP4 for 4 weeks, so as to potentiate the differentiation of mature, glial fibrillary acidic protein (GFAP)-expressing, fiber-bearing astrocytes (FIGS. 10A-10C). […] Astrocytes from 4 different SCZ and 4 different CTR lines were then incubated with 86Rb, a surrogate monovalent cation for K^+ uptake (Larsen et al., “Contributions of the Na(+)/K(+)-ATPase, NKCC1, and Kir4.1 to Hippocampal K(+) Clearance and Volume Responses,” Glia 62:608-622 (2014), which is hereby incorporated by reference in its entirety), and rubidium uptake measured as a function of both cell number and total protein.

[2] = test system: SCZ astrocytes; assay: Potassium uptake (86Rb) by SCZ astrocytes; type: cell-based, human; conditions: 86Rb uptake, 4 lines
Method: as §1, with “The aCSF solution contained (in mM): 124 NaCl, 2.5 KCl, 1.75 NaH2PO4, 2 MgCl2, 2 CaCl2, 0.04 vitamin C, 10 glucose and 26 NaHCO3, pH 7.4.” left out
To address this hypothesis, qPCR was used to confirm whether these K+ channel-associated genes were dysregulated in SCZ glia. […] Next, functional K^+ uptake was assessed directly, in cultured SCZ- and CTR-derived astrocytes. […] Astrocytes from 4 different SCZ and 4 different CTR lines were then incubated with 86Rb, a surrogate monovalent cation for K^+ uptake (Larsen et al., “Contributions of the Na(+)/K(+)-ATPase, NKCC1, and Kir4.1 to Hippocampal K(+) Clearance and Volume Responses,” Glia 62:608-622 (2014), which is hereby incorporated by reference in its entirety), and rubidium uptake measured as a function of both cell number and total protein.

Row | Compound | K+ uptake [1] | K+ uptake [2]
1 | tertiapin (ALCNCNRIIIPHMCWKKCGKK; UniProt P56587 1-21, looked up) [drug which targets Kir channels] | did not | 
2 | C[C@@H]1O[C@@H](O[C@H]2C[C@@H](O)[C@]3(CO)[C@H]4[C@H](O)C[C@]5(C)[C@@H](C6=CC(=O)OC6)CC[C@]5(O)[C@@H]4CC[C@]3(O)C2)[C@H](O)[C@H](O)[C@H]1O [ouabain] | significantly inhibited | neither ouabain nor bumetanide affected
3 | CCCCNc1cc(C(=O)O)cc(S(N)(=O)=O)c1Oc1ccccc1 [bumetanide] | significantly inhibited | neither ouabain nor bumetanide affected
